The record followed here is US20120245229A1, “METHOD FOR TREATING NEUROPATHIC PAIN” (priority 2009, published 2012).

The subject of assay [1] is paw incision-induced postoperative pain. Kind of assay: Postoperative pain model induced by hindpaw incision. The format is in vivo, mice. As to conditions: postoperative pain model induced by surgical incision. The protocol:
(§1) Animals and pain models. Adult CD1 mice (male, 25-32 g) were used for most experiments. Knockout mice were used lacking TNFR1/II (Tnfrsf1a/1b^−/−) and TRPV1 (Trpv1^−/−) and C57BL/6 wild-type control mice, all from Jackson, for some experiments. All animal procedures performed in this study were approved by the Harvard Medical Area Standing Committee on Animals. 20 μl of diluted formalin (5%), carrageenan (CRG, 1%), or complete Freund's adjuvant (CFA) were injected into the plantar surface of a hindpaw to produce acute, persistent, or chronic inflammatory pain, respectively. Postoperative pain was also produced through hindpaw incision^36 and neuropathic pain by ligation of the spinal nerve^37.
Behavioral analysis. Mice were habituated in the testing environment for two days and performed behavioral testing in a blinded manner. Formalin-evoked spontaneous inflammatory pain was assessed by measuring duration (seconds) animals spent on licking/flinching the affected paws every 5 min for 45 min. Capsaicin-induced spontaneous pain was aslo assessed for 10 min. […] It was determined the 50% paw withdrawal threshold using Dixon's up-down method^40. […] The percent maximal possible antinociceptive effect (% M.P.E) was calculated using the equation % M.P.E.=[(PL−BL2)/(BL1−BL2)]×100. […]

For assay [2], the system named is complete Freund's adjuvant (CFA)-evoked heat hyperalgesia. Briefly: CFA-evoked heat hyperalgesia (paw withdrawal latency, Hargreaves). It counts as in vivo, mice. The following applies: for reduction of heat hyperalgesia: 10 ng i.t., post-CFA day 3, 1 h after injection. The protocol:
as §1
Reagents and administration. RvE1 and RvD1 were suspended in 1% or 10% ethanol as vehicle for investigating acute (<1 h) and persistent (1-6 h) effects of resolvins on inflammatory pain. The reagents (10 μl) were delivered to the cerebral spinal fluid via intrathecal injection made by a spinal cord puncture between the L5 and L6 level with a 30G needle^38.
(§2) Behavioral analysis. Mice were habituated in the testing environment for two days and performed behavioral testing in a blinded manner. Formalin-evoked spontaneous inflammatory pain was assessed by measuring duration (seconds) animals spent on licking/flinching the affected paws every 5 min for 45 min. Capsaicin-induced spontaneous pain was aslo assessed for 10 min. For testing mechanical sensitivity, mice were put in boxes on an elevated metal mesh floor and stimulated hindpaw with a series of von Frey hairs with logarithmically incrementing stiffness (0.02-2.56 grams, Stoelting), presented perpendicular to the plantar surface. It was determined the 50% paw withdrawal threshold using Dixon's up-down method^40. For testing heat sensitivity, mice were placed in plastic boxes and tested heat sensitivity using Hargreaves radiant heat apparatus (IITC Life Science Inc.). The basal paw withdrawal latency was adjusted to 9-12 seconds and set a cut-off of 20 seconds to prevent tissue damage. The percent maximal possible antinociceptive effect (% M.P.E) was calculated using the equation % M.P.E.=[(PL−BL2)/(BL1−BL2)]×100. BL1, baseline latency before inflammation; BL2, baseline latency after inflammation but before drug injection; PL, latency post drug injection.
Intrathecal injection. To avoid systemic effects of drugs and target spinal mechanisms, drugs were delivered into cerebral spinal fluid (CSF) space around lumbosacral spinal cord via intrathecal (i.t.) administration. Spinal cord puncture was made with a 30G needle between the L5 and L6 level to deliver the reagents (10 μl) to the cerebral spinal fluid (Hylden and Wilcox, 1980)^5. […] In addition to spinal cord cells, intrathecal drug administration also affects DRG cells^6,7.
The anti-hyperalgesic efficacy of RvE1 prepared in 1% and 10% ethanol was compared on post-CFA day 3.

Another assay concerns lamina II neurons. Kind of assay: Patch clamp recording of sEPSCs in lamina II neurons of spinal cord slices. The format is cell-based, mice. The protocol:
Spinal cord slice preparation. As previously reported^39, a portion of the lumbar spinal cord (L4-L5) was removed from young mice (3-4 week old) under urethane anesthesia (1.5-2.0 g/kg, i.p.) and transverse spinal cord slices were cut (600 μm) on a vibrating microslicer. The slices were perfused with Kreb's solution (8 ml/min) for >2 h prior to experiments. Some slices were stimulated with TNF-α (10 ng/ml, 5 min), the slices were fixed with 4% paraformaldehyde for 1 h, and processed pERK immunohistochemistry using thin sections (15 μm)^13.
Patch clamp recordings in spinal slices. Whole cell patch-clamp recordings were performed in lamina II neurons in voltage clamp mode^39. After establishing the whole-cell configuration, neurons were held at the holding potentials of −70 mV for recording spontaneous excitatory postsynaptic current (sEPSC). NMDA-induced currents were recorded by bath application of NMDA (50 μM, Sigma) at the holding potential of −50 mV. Membrane currents were amplified with an Axopatch 200A amplifier (Axon Instruments) in voltage-clamp mode. pCLAMP 6 was used and Mini Analysis (Synaptosoft Inc.) software to store and analyze the data. Those cells showing >5% changes from the baseline levels were reagrded as responding ones^24.
Resolvins were also used for intraplantar injection. RvD1 or RvE1 was injected into the plantar surface of a hindapaw [20 ng, 20 μl , in 1% ethanol (Supplementary FIG. 5a, 5b) or in 10% ethanol (FIG. 2e, Supplementary FIG. 1d)]. DRG cultures were incubated with RvE1 (10 ng/ml, 0.1% ethanol in culture medium) and perfused spinal cord slices with RvE1 (1 ng/ml, in 0.01% ethanol and Kreb's solution).
Perfusion of spinal cord slices: Spinal cord slices were incubated with chemerin (100 ng/ml, in Kreb's solution), TNF-α (10 ng/ml, in Kreb's solution), capsaicin (100 nM, in 0.01% DMSO and Kreb's solution), TRPV1 antagonist capsazepine (Sigma, 10 μM, in 0.01% DMSO and Kreb's solution), pertussix toxin (0.5 μg/ml, in Kreb's solution), and MEK inhibitor PD98059 and U0126 (CalBiochem, 1 μM, in 0.01% DMSO and Kreb's solution). For pertussix toxin treatment, spinal cord slices were incubated with the toxin for 3 h before stimulation.

The test system of assay [3] is carrageenan (CRG)-elicited heat hyperalgesia. Briefly: Carrageenan (CRG)-elicited heat hyperalgesia. The format is in vivo, mice. As to conditions: intraplantar pretreatment, 20 ng, 10 min before carrageenan. On the procedure:
as §1, §2
Resolvins were also used for intraplantar injection. […]

Each structure is given as a SMILES string.

Take `CC[C@@H](O)/C=C/C=C\C[C@@H](O)/C=C/C=C/C=C\[C@@H](O)CCCC(=O)O` [RvE1, 5S,12R,18R-trihydroxyeicosapentaenoic acid]: the postoperative pain entry in assay [1] was “effectively abolish”. Moreover, the “reduction of heat hyperalgesia” value was 54.7% in assay [2] (vehicle 1% ethanol) and 55.7% in assay [2] (vehicle 10% ethanol). For the same compound, the reduction in hyperalgesia in assay [2] (10 ng intrathecal, post-CFA day 3, 15 min after administration) is recorded as approximately 75%. The “potency of 10 ng RvE1 compared with 10 μg NS-398” value in assay [2] (intrathecal, CFA heat hyperalgesia, 1-6 h) is “more potent than 10 μg COX-2 inhibitor NS-398”. Further, the “capsaicin-induced increases in sEPSC frequency after pretreatment with pertussis toxin” value in the assay on lamina II neurons (PTX 0.5 μg/ml for 3 h before capsaicin stimulation) is given as “fails to inhibit”. In the assay on lamina II neurons (RvE1 alone, 1 ng/ml perfusion), the “basal synaptic transmission (sEPSC)” value was “did not alter basal synaptic transmission”. Further, the “TNF-α-evoked sEPSC frequency increase” value in the assay with lamina II neurons (TNF-α 10 ng/ml, RvE1 1 ng/ml, capsazepine 10 μM) is reported as “blocked”. The “capsaicin-evoked sEPSC frequency increase” value with lamina II neurons (capsaicin 100 nM, RvE1 1 ng/ml, chemerin 100 ng/ml, PD98059 and U0126 1 μM) was “completely blocked”. Also, the CRG-evoked heat hyperalgesia result in assay [3] is listed as “substantially attenuated”.
